The values below come from patent publication US20140349989A1, “COMPOUNDS AND THERAPEUTIC USES THEREOF” (Alzheimer's Institute of America, priority 2011, published 2014).

Like-named read-outs stand apart in the source and are kept apart here.

A short description of this series: Cytotoxicity Assay (HCT116, CellTiter-Glo). It is filed as cell-based. The settings on record: human. On the procedure: HCT116 cells were seeded in 96 well plates (Greiner Bio-One, Monroe, N.C.) and allowed to settle overnight. Test compound dissolved in dimethyl sulfoxide (DMSO) was added and drug incubation proceeded for 72 hours. When applicable, a 1000× solution of nicotinic acid (NA; Sigma-Aldrich, St. Louis, Mo.) dissolved in water was generated, and 1×NA (10 μM final concentration) was added at the same time as the test compound. After 72 hour, 50 μL of CellTiter-Glo Luminescent Cell Viability Assay reagent (Promega Corporation, Madison, Wis.) was added to cells in 200 μL of cellular media. After a proscribed incubation period, luminescence was measured using a TopCount NXT plate reader (PerkinElmer, Waltham, Mass.).
On the technique in general: ATP-based viability assays read luminescence as a measure of living cells.

[1] abbreviates: HCT116 cells, 72 hours drug incubation, CellTiter-Glo luminescence, read-out: HCT116 cell cytotoxicity IC50.

The IC50 is the concentration that inhibits the measured activity by half.

In the case of `O=C(NCc1cccnc1)Nc1ccc2c(c1)c(C(=O)NCCCN1CCOCC1)cn2Cc1ccccc1` [Compound 51, 1-Benzyl-N-[3-(morpholin-4-yl)propyl]-5-{[(pyridin-3-ylmethyl)carbamoyl]ami-no}-1H-indole-3-carboxamide], under setting [1], the IC50 at 72 h was ≥ 100 nM.
For `O=C(NCc1cccnc1)Nc1ccc(-n2cc(-c3nccn3CCC3CCNCC3)c3ccccc32)cc1` [Compound 60, 1-[4-(3-{1-[2-(Piperidin-4-yl)ethyl]-1H-imidazol-2-yl}-1H-indol-1-yl)phenyl]-3-(pyridin-3-ylmethyl)urea], under setting [1], the IC50 at 72 h was ≥ 100 nM.
Take `CC(=O)N1CCC(n2cc(C(=O)CCCCNC(=O)NCc3cccnc3)c3ccccc32)CC1` [Compound 58, 1-{5-[1-(1-Acetylpiperidin-4-yl)-1H-indol-3-yl]-5-oxo-pentyl}-3-(pyridin-3-ylmethyl)urea]: the IC50 at 72 h under setting [1] is ≥ 100 nM.
For the molecule `O=C(Cc1ccc(-n2nc(C(=O)N3CCC(N4CCCCC4)CC3)c3ccccc32)cc1)NCc1cccnc1` [Compound 183, 2-{4-[3-(1,4′-Bipiperidin-1′-ylcarbonyl)-1H-indazol-1-yl]phenyl}-N-(pyridin-3-ylmethyl)acetamide], the IC50 at 72 h under setting [1] was < 100 nM.
In the case of `O=C(NCc1cncs1)Nc1ccc(-n2cc(CCN3CCOCC3)c3ccccc32)cc1` [Compound 63, 1-(4-{3-[2-(Morpholin-4-yl)ethyl]-1H-indol-1-yl}phenyl)-3-(1,3-thiazol-5-ylmethyl) urea], the IC50 at 72 h (HCT116 cell cytotoxicity IC50) is ≥ 100 nM.
With `CN1CCN(C2CCN(C(=O)c3cn(CCCCNC(=O)NCc4cccnc4)c4ccccc34)CC2)CC1` [Compound 115, 1-[4-(3-{[4-(4-Methylpiperazin-1-yl)piperidin-1-yl]carbonyl}-1H-indol-1-yl)butyl]-3-(pyridin-3-ylmethyl)urea], the IC50 at 72 h under setting [1] was < 100 nM.
With `O=C(NCc1cccnc1)Nc1ccc(N2CC3(CCN(C4CCCC4)CC3)c3ccccc32)cc1` [Compound 117, 1-[4-(1′-Cyclo-pentylspiro[indole-3,4′-piperidin]-1(2H)-yl)phenyl]-3-(pyridin-3-ylmethyl)urea], the IC50 at 72 h under setting [1] is < 100 nM.
For the molecule `O=C(NCc1cccnc1)Nc1ccc(-n2cc([C@H]3CC[C@@H](N4CC(F)(F)C4)CC3)c3ccccc32)cc1` [Compound 94, 1-[4-[3-[4-(3,3-difluoroazetidin-1-yl)cyclohexyl]indol-1-yl]phenyl]-3-(3-pyridylmethyl)urea], under setting [1], the IC50 at 72 h was < 100 nM.
Same read-out and setting: the value for `O=C(NCc1cccnc1)Nc1ccc2c(c1)c(C(=O)NCCCN1CCCCC1)cn2Cc1ccccc1` [Compound 96, 1-Benzyl-N-[3-(piperidin-1-yl)propyl]-5-{[(pyridin-3-yl-methyl)carbamoyl]amino}-1H-indole-3-carboxamide] was ≥ 100 nM.
`O=C(NCCCCCCc1c[nH]c2ccccc12)NCc1cccnc1` [Compound 89, 1-[6-(1H-Indol-3-yl)hexyl]-3-(pyridin-3-ylmethyl)urea]: under “HCT116 cell cytotoxicity IC50”, the IC50 at 72 h was ≥ 100 nM.
As to `CC1CCCN1CCc1cn(-c2ccc(/C=C/C(=O)NCc3cccnc3)cc2)c2ccccc12` (stereo not drawn) [Compound 161, (2E)-3-(4-{3-[2-(2-Methylpyrrolidin-1-yl)ethyl]-1H-indol-1-yl)phenyl)-N-(pyridin-3-ylmethyl)prop-2-enamide], under setting [1], the IC50 at 72 h is < 100 nM.
Consider `Cc1c(C(=O)N2CCN(C3CCCCC3)CC2)c2ccccc2n1-c1ccc(NC(=O)NCc2cccnc2)cc1` [Compound 104, 1-(4-{3-[(4-Cyclohexyl-piperazin-1-yl)carbonyl]-2-methyl-1H-indol-1-yl}phenyl)-3-(pyridin-3-ylmethyl)urea], for which the IC50 at 72 h under setting [1] was < 100 nM.
Turning to `CC(C)N(CCc1cn(-c2ccc(/C=C/C(=O)NCc3cccnc3)cc2)c2ccccc12)C(C)C` [Compound 163], the half-maximal inhibitory concentration (IC50) at 72 h under setting [1] was < 100 nM.
For the molecule `CN1CCN(C2CCN(C(=O)c3cn(CCCCCNC(=O)NCc4cccnc4)c4ccccc34)CC2)CC1` [Compound 64, 1-[5-(3-{[4-(4-Methylpiperazin-1-yl)piperidin-1-yl]carbonyl}-1H-indol-1-yl)pentyl]-3-(pyridin-3-ylmethyl) urea], under setting [1], the IC50 at 72 h was < 100 nM.
For `Cc1c(C(=O)N2CCC(n3ccnc3)CC2)c2ccccc2n1-c1ccc(NC(=O)NCc2cccnc2)cc1` [Compound 48, 1-[4-(3-{[4-(1H-Imidazol-1-yl)piperidin-1-yl]carbonyl}-2-methyl-1H-indol-1-yl)phenyl]-3-(pyridin-3-ylmethyl)urea], where the note is “HCT116 cell cytotoxicity IC50”, the IC50 at 72 h is ≥ 100 nM.
On to `CCN1CCN(C(=O)c2cn(-c3ccc(NC(=O)NCc4cccnc4)cc3Cl)c3ccccc23)CC1` [Compound 95, 1-(3-Chloro-4-{3-[(4-ethylpiperazin-1-yl)carbonyl]-1H-indol-1-yl}phenyl)-3-(pyridin-3-ylmethyl)urea], for which the IC50 at 72 h under setting [1] is < 100 nM.
Consider `CC(C)(CCCCNC(=O)NCc1cccnc1)n1cc(C(=O)N2CCN(C3CCCCC3)CC2)c2ccccc21` [Compound 67, 1-(5-{3-[(4-Cyclohexyl-piperazin-1-yl)carbonyl]-1H-indol-1-yl}-5-methylhexyl)-3-(pyridin-3-ylmethyl)urea], for which the IC50 at 72 h under setting [1] is < 100 nM.
In the case of `CCOC(=O)c1cn(CCCCCNC(=O)NCc2cccnc2)c2ccccc12` [Compound 65, Ethyl 1-(5-{[(pyridin-3-ylmethyl)carbamoyl]amino}pentyl)-1H-indole-3-carboxylate], the IC50 at 72 h under setting [1] is < 100 nM.
For the molecule `O=C(/C=C/c1ccc(-n2nc(C(=O)N3CCN(C4CCCCC4)CC3)c3ccccc32)cc1)NCc1cccnc1` [Compound 173, (2E)-3-(4-{3-[(4-Cyclohexylpiperazin-1-yl)carbonyl]-1H-indazol-1-yl}phenyl)-N-(pyridin-3-ylmethyl)prop-2-enamide], under setting [1], the IC50 at 72 h is < 100 nM.
Turning to `CN(c1nn(-c2ccc(NC(=O)NCc3cccnc3)cc2)c2ccccc12)C1CCNC1` (stereo not drawn) [Compound 76, 1-(4-{3-[Methyl (pyrrolidin-3-yl)amino]-1H-indazol-1-yl}phenyl)-3-(pyridin-3-ylmethyl)urea], under setting [1], the IC50 at 72 h was < 100 nM.
As for `O=C(NCc1cccnc1)Nc1ccc(-n2cc(-c3nccn3CCN3CCCC3)c3ccccc32)cc1` [Compound 72, 1-(Pyridin-3-ylmethyl)-3-[4-(3-{1-[2-(pyrrolidin-1-yl)ethyl]-1H-imidazol-2-yl}-1H-indol-1-yl)phenyl] urea], the IC50 at 72 h under setting [1] was < 100 nM.
In the case of `O=C(NCCCCCn1cc(C(=O)N2CCN(C3CCCCC3)CC2)c2ccccc21)NCc1cccnc1` [Compound 116, 1-(5-{3-[(4-Cyclohexyl-piperazin-1-yl)carbonyl]-1H-indol-1-yl}pentyl)-3-(pyridin-3-ylmethyl)urea], the IC50 at 72 h under setting [1] is < 100 nM.
On the same count and under the same terms, with `O=C(NCc1cccnc1)Nc1ccc(-n2cc(CCN3CC[C@@H](F)C3)c3ccccc32)cc1` [Compound 38, 1-[4-(3-{2-[(3R)-3-Fluoropyrrolidin-1-yl]ethyl}-1H-indol-1-yl)phenyl]-3-(pyridin-3-ylmethyl)urea] the figure was < 100 nM.
On to `O=C(NCc1cccnc1)Nc1ccc(N2CC3(CCNCC3)c3ccccc32)cc1` [Compound 80, 1-(Pyridin-3-ylmethyl)-3-[4-(spiro[indole-3,4′-piperidin]-1(2H)-yl)phenyl]urea], for which the IC50 at 72 h (HCT116 cell cytotoxicity IC50) is < 100 nM.
As to `O=C(NCc1cccnc1)Nc1ccc(-n2cc(CCN3CCOCC3)c3ccccc32)cc1` [Compound 100, 1-(4-{3-[2-(Morpholin-4-yl)ethyl]-1H-indol-1-yl}phenyl)-3-(pyridin-3-ylmethyl)urea], under setting [1], the IC50 at 72 h was < 100 nM.
On the same count and under the same terms, the value for `CN1CCN(C(=O)Cc2cn(-c3ccc(NC(=O)NCc4cccnc4)cc3)c3ccccc23)CC1` [Compound 101, 1-(4-{3-[2-(4-Methylpiperazin-1-yl)-2-oxoethyl]-1H-indol-1-yl}phenyl)-3-(pyridin-3-ylmethyl)urea] was < 100 nM.
As for `O=C(NCc1cccnc1)Nc1ccc(N2CC3(CCN(C4CCOCC4)CC3)c3ccccc32)nc1` [Compound 130], the IC50 at 72 h (HCT116 cell cytotoxicity IC50) is < 100 nM.
On to `CN(C)C1CN(C(=O)c2nn(-c3ccc(/C=C/C(=O)NCc4cccnc4)cc3)c3ccccc23)C1` [Compound 165, (2E)-3-[4-(3-{[3-(Dimethylamino)azetidin-1-yl]carbonyl}-1H-indazol-1-yl)phenyl]-N-(pyridin-3-ylmethyl)prop-2-enamide], for which, under setting [1], the IC50 at 72 h is < 100 nM.
Turning to `O=C(/C=C/c1ccc(-n2nc(C(=O)N3CCN(C4CCC4)CC3)c3ccccc32)cc1)NCc1cccnc1` [Compound 167, (2E)-3-(4-{3-[(4-Cyclobutylpiperazin-1-yl)carbonyl]-1H-indazol-1-yl}phenyl)-N-(pyridin-3-ylmethyl)prop-2-enamide], the IC50 at 72 h under setting [1] was < 100 nM.
As to `O=C(CCc1ccc(-n2cc(CCN3CCOCC3)c3ccccc32)cc1)NCc1cccnc1` [Compound 180, 3-(4-{3-[2-(Morpholin-4-yl)ethyl]-1H-indol-1-yl}phenyl)-N-(pyridin-3-ylmethyl)propanamide], the half-maximal inhibitory concentration (IC50) at 72 h under setting [1] is < 100 nM.
With `CCN1CCN(C(=O)c2cn(CCCCCNC(=O)NCc3cncs3)c3ccccc23)CC1` [Compound 113, 1-(5-{3-[(4-Ethylpiperazin-1-yl)carbonyl]-1H-indol-1-yl}pentyl)-3-(1,3-thiazol-5-ylmethyl) urea], the IC50 at 72 h under setting [1] was < 100 nM.
Consider `O=C(NCc1cccnc1)Nc1ccc(-c2cn(S(=O)(=O)c3cccnc3)c3ccccc23)cc1` [Compound 43, 1-(Pyridin-3-ylmethyl)-3-{4-[1-(pyridin-3-ylsulfonyl)-1H-indol-3-yl]phenyl} urea], for which the IC50 at 72 h (HCT116 cell cytotoxicity IC50) is < 100 nM.
As to `O=C(NCc1cccnc1)Nc1ccc(-n2nc(N3CCN(C4CCCCC4)CC3)c3ccccc32)cc1` [Compound 86, 1-{4-[3-(4-Cyclo-hexylpiperazin-1-yl)-1H-indazol-1-yl]phenyl}-3-(pyridin-3-ylmethyl)urea], the IC50 at 72 h under setting [1] is < 100 nM.
